From ChEMBL document CHEMBL1949658, “3D-QSAR and 3D-QSSR models of negative allosteric modulators facilitate the design of a novel selective antagonist of human α4β2 neuronal nicotinic acetylcholine receptors” (Bioorg Med Chem Lett, 2012)

Experiments:
[1] = target: Neuronal acetylcholine receptor; alpha4/beta2 (Homo sapiens, UniProt P17787+P43681); assay: Antagonist activity at human nAChR alpha4/beta2 receptor expressed in HEK ts201 cells assessed as calcium accumulation by fluorescence analysis; format: functional, cell-based
Homo sapiens = species on record: Homo sapiens; assay: Selectivity ratio of pIC50 for human nAChR alpha3/beta4 receptor to pIC50 for human nAChR alpha4/beta2 receptor
[2] = target: Neuronal acetylcholine receptor; alpha3/beta4 (Homo sapiens, UniProt P30926+P32297); assay: Antagonist activity at human nAChR alpha3/beta4 receptor expressed in HEK ts201 cells assessed as calcium accumulation by fluorescence analysis; format: functional, cell-based
Sequence of Neuronal acetylcholine receptor; alpha3/beta4 (P30926 whole entry): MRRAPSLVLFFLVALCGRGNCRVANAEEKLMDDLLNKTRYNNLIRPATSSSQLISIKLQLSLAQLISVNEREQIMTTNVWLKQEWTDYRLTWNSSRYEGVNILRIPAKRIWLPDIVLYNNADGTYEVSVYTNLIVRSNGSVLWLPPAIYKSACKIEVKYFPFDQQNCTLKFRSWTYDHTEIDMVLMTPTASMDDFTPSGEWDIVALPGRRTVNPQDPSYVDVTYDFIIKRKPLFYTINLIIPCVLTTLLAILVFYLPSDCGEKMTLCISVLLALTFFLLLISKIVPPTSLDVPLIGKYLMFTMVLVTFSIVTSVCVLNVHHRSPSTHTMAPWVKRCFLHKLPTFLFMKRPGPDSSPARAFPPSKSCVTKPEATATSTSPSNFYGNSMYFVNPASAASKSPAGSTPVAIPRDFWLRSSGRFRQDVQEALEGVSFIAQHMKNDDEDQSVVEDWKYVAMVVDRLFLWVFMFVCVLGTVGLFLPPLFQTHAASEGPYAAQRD
Sequence of Neuronal acetylcholine receptor; alpha3/beta4 (P32297 whole entry): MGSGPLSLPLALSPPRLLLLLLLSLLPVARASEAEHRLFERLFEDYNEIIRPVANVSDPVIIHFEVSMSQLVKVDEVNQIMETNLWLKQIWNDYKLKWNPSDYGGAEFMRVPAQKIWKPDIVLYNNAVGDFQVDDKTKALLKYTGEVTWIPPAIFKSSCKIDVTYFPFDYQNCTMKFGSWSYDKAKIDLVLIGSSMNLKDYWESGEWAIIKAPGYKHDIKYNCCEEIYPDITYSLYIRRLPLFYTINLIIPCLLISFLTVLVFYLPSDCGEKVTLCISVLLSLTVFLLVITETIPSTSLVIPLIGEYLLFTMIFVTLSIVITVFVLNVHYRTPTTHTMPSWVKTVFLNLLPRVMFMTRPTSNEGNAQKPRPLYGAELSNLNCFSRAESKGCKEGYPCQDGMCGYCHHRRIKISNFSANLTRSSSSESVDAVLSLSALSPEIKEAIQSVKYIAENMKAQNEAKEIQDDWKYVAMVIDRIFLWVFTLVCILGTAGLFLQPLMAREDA

Sequence of Neuronal acetylcholine receptor; alpha4/beta2 (P17787 whole entry): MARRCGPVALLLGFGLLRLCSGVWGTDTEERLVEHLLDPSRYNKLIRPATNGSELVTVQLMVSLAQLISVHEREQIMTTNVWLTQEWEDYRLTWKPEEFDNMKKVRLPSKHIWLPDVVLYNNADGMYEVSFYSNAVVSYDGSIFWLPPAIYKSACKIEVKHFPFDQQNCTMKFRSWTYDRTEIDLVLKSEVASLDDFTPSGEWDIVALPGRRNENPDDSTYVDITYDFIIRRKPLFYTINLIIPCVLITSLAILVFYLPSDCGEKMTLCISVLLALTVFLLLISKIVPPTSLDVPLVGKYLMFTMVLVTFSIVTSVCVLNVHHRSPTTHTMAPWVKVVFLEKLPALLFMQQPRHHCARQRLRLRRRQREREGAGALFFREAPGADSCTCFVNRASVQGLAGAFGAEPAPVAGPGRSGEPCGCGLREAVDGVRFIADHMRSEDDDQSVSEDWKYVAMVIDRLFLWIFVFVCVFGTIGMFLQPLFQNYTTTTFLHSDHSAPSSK
Sequence of Neuronal acetylcholine receptor; alpha4/beta2 (P43681 whole entry): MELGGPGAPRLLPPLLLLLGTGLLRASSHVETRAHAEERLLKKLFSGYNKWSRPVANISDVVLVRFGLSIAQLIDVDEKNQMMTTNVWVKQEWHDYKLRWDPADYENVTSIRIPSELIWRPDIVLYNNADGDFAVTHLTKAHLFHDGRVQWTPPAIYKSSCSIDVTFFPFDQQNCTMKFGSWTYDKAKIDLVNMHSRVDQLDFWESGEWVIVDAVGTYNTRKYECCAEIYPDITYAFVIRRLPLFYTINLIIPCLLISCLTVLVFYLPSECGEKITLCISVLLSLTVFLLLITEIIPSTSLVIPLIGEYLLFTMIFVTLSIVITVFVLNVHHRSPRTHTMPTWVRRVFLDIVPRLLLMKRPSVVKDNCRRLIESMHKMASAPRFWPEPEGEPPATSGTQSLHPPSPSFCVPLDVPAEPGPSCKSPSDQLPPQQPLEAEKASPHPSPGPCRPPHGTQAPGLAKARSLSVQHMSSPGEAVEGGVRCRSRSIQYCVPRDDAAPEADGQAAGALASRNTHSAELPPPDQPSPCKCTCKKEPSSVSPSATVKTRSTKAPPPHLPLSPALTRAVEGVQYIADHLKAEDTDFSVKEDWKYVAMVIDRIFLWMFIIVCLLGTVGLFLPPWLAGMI

| Structure (SMILES) | IC50 ([1]; read-out: pIC50 (converted)) | Ratio pIC50 (Homo sapiens) | IC50 ([2]; read-out: pIC50 (converted)) | IC50 ([1]; read-out: IC50) | IC50 ([2]; read-out: IC50) |
| --- | --- | --- | --- | --- | --- |
| C[C@@H]1CC(=O)N(c2ccccc2C(=O)OC[C@@H]2CCCN(CCCc3ccccc3)C2)C1=O | 8.91 µM | 0.02 | 9.55 µM |  |  |
| O=C(CCc1ccccc1)N1CCCC(CN(Cc2ccccc2-c2ccccc2)Cc2ccccc2-c2ccccc2)C1 (stereo not given) | 20.9 µM | 0.29 | 40.7 µM |  |  |
| C[C@H]1CC(=O)N(c2ccccc2C(=O)OC[C@H]2CCCN(CCCc3ccccc3)C2)C1=O | 10.5 µM | 0.02 | 11 µM |  |  |
| CC1CC(=O)N(c2ccccc2C(=O)OCC2CCCN(CCCCCOc3ccc(Cl)c(Cl)c3)C2)C1=O (stereo not given) | 17.4 µM | -0.28 | 9.12 µM |  |  |
| O=C(OCC1CCCN(CCCc2ccccc2)C1)c1ccc(-c2ccccc2)cc1 (stereo not given) | 6.31 µM | 0.47 | 18.6 µM |  |  |
| COc1ccc(OCCCCCN2CCCC(COC(=O)c3coc4ccccc4c3=O)C2)cc1 (stereo not given) | 10 µM |  |  |  |  |
| O=C(OCC1CCCN(CCCc2ccccc2)C1)c1ccccc1Cl (single isomer, unassigned) | 9.33 µM | 0.39 | 22.9 µM |  |  |
| CC(C)N1CCCC(COC(=O)c2ccccc2N2C(=O)CC(Cc3ccccc3)C2=O)C1 (stereo not given) | 8.91 µM |  |  |  |  |
| O=C(OCC1CCCNC1)c1ccccc1-c1ccccc1 (single isomer, unassigned) | 7.08 µM | 0.06 | 8.13 µM |  |  |
| COc1ccc(OCCCCCN2CCCC(COC(=O)c3ccccc3N3C(=O)CC(C)C3=O)C2)cc1 (stereo not given) | 14.5 µM |  |  |  |  |
| O=C(OCC1CCCN(CCc2ccccc2)C1)c1ccccc1N1C(=O)CC(Cc2ccccc2)C1=O (stereo not given) | 4.47 µM | 0.42 | 11.7 µM |  |  |
| COc1ccc(OCCCCCN2CCCC(COC(=O)c3cc(=O)c4ccccc4o3)C2)cc1 (stereo not given) | 10.2 µM |  |  |  |  |
| c1ccc(-c2ccccc2COCC2CCCNC2)cc1 (stereo not given) | 4.17 µM |  |  |  |  |
| CC1CC(=O)N(c2ccccc2C(=O)OC[C@@H]2C[C@H](C3CCCCC3)CN(CCCc3ccccc3)C2)C1=O (stereo not given in full) | 39.8 µM | 0.33 | 85.1 µM |  |  |
| CC1CC(=O)N(c2ccccc2C(=O)OCC2CCCN(CCCCOc3ccc(Cl)c(Cl)c3)C2)C1=O (stereo not given) | 12.3 µM | 0.78 | 74.1 µM |  |  |
| CC1CC(=O)N(c2ccccc2C(=O)CCC2CCCN(CCCCOc3ccc(C(F)(F)F)cc3)C2)C1=O (stereo not given) | 7.08 µM |  |  |  |  |

| Structure (SMILES) | IC50 ([1]; read-out: pIC50 (converted)) | Ratio pIC50 (Homo sapiens) | IC50 ([2]; read-out: pIC50 (converted)) | IC50 ([1]; read-out: IC50) | IC50 ([2]; read-out: IC50) |
| --- | --- | --- | --- | --- | --- |
| COc1ccccc1C(=O)OCC1CCCN(CCCc2ccccc2)C1 (single isomer, unassigned) | 7.94 µM | 0.19 | 12 µM |  |  |
| CC1CC(=O)N(c2ccccc2C(=O)OCC2CCCN(CCOc3cccc4ccccc34)C2)C1=O (stereo not given) | 3.89 µM | 0.61 | 15.8 µM |  |  |
| O=C(OCC1CCCN(CCCCCOc2ccc(Cl)cc2)C1)c1ccccc1-c1ccccc1 (stereo not given) | 14.5 µM | 0.02 | 15.5 µM |  |  |
| COc1ccc(OCCCCCN2CCCC(COC(=O)c3ccccc3-c3ccccc3)C2)cc1 (stereo not given) | 14.5 µM |  | 22.4 µM |  |  |
| O=C(OCC1CCCN(CCCc2ccccc2)C1)c1ccccc1N1C(=O)CC(CCc2ccccc2)C1=O (stereo not given) | 5.13 µM | 0.81 | 33.1 µM |  |  |
| CC1CC(=O)N(c2ccccc2C(=O)OCC2CCCN(CCOc3cccc(-c4ccccc4)c3)C2)C1=O (stereo not given) | 7.24 µM | 0.57 | 26.9 µM |  |  |
| O=C(NCc1ccccc1-c1ccccc1)C1CCCN(CCCc2ccccc2)C1 (single isomer, unassigned) | 16.6 µM | -0.06 | 14.5 µM |  |  |
| COc1ccc(OCCN2CCCC(COC(=O)c3ccccc3N3C(=O)CC(C)C3=O)C2)cc1 (stereo not given) | 66.1 µM | -0.75 | 12 µM |  |  |
| CC1CC(=O)N(c2ccccc2C(=O)OCC2CCCN(CCOc3ccc(Cl)c(Cl)c3)C2)C1=O (stereo not given) | 15.1 µM | 0.06 | 17.4 µM |  |  |
| O=C(OCC1CCCN(CCCc2ccccc2)C1)c1ccccc1C(F)(F)F (single isomer, unassigned) |  | -0.16 |  | 8 µM | 5.5 µM |
| O=C(OC1CCCN(CCCc2ccccc2)C1)c1ccccc1-c1ccccc1 (single isomer, unassigned) |  |  |  | 6.5 µM | 2.7 µM |
| CC1CC(=O)N(c2ccccc2C(=O)OCC2CCCN(CCCCOc3ccccc3)C2)C1=O (stereo not given) | 1.7 µM |  |  |  |  |
| C[N+]1(C)CCCC(COC(=O)c2ccccc2-c2ccccc2)C1 (single isomer, unassigned) | 2.4 µM | 0.43 | 6.46 µM |  |  |
| O=C(OCc1ccccc1-c1ccccc1)C1CCCN(CCCc2ccccc2)C1 (single isomer, unassigned) | 17.8 µM | 0.24 | 10.2 µM |  |  |
| [N-]=[N+]=NCCCN1CCCC(COC(=O)c2ccccc2-c2ccccc2)C1 (single isomer, unassigned) | 4.27 µM | -0.38 | 1.82 µM |  |  |
| CC1(C)OC2C3CC(C2O1)N(CCCc1ccccc1)CC3OC(=O)c1ccccc1-c1ccccc1 (stereo not given) | 11.5 µM | 0.08 | 13.8 µM |  |  |
